According to article PMC9032825, “Docking, Binding Free Energy Calculations and In Vitro Characterization of Pyrazine Linked 2-Aminobenzamides as Novel Class I Histone Deacetylase (HDAC) Inhibitors” (Molecules, 2022):
Like-named read-outs stand apart in the source and are kept apart here.

Columns and labels:
human HDAC2 [1] = molecular target: T1, human HDAC2 (Homo sapiens, UniProt Q92769); details: training set, from in vitro IC50; cited from earlier work
human HDAC1 [2] = molecular target: T2, human HDAC1 (Homo sapiens, UniProt Q13547); details: training set, from in vitro IC50; cited from earlier work
human HDAC3 [3] = molecular target: T3, human HDAC3 (Homo sapiens, UniProt O15379); details: training set, from in vitro IC50; cited from earlier work
human HDAC2 [4] = molecular target: T1, human HDAC2; assay: HDAC2 inhibition, fluorogenic peptide substrate Ac-RHKK(Acetyl)-AMC; format: biochemical; details: test set
Procedure: (§1) HDAC1, 2, 3 inhibitory activity for the novel inhibitors was performed as previously reported. To keep the test number small, we applied a two-step screening.
(§2) A fluorogenic peptide derived from p53 (Ac-RHKK(Acetyl)-AMC) was used as substrate. The measurements were performed in an assay buffer (50 mM Hepes, 150 mM NaCl, 5 mM MgCl2, 1 mM TCEP and 0.2 mg/mL BSA, pH 7.4 adjusted with NaOH) at 37 °C. Inhibitors at different concentrations were incubated with 10 nM HDAC1, 3 nM HDAC2 or 3 nM HDAC3 (final concentration) for at least 5 min. The reaction was started with the addition of the fluorogenic substrate (20 µM final concentration) and incubated for 30 min for HDAC2 and HDAC3 and 90 min for HDAC1. The reaction was stopped with a solution of 1 mg/mL trypsin in 1 mM HCl and incubated for 1 h at 37 °C. The fluorescence intensity was recorded with an Envision 2104 Multilabel Plate Reader (PerkinElmer, Waltham, MA) with an excitation wavelength of 380 ± 8 nm and an emission wavelength of 430 ± 8 nm. The received fluorescence intensities were normalized with uninhibited reaction as 100% and the reaction without enzyme as 0%. A nonlinear regression analysis was done to determine the IC50 value.

human HDAC1 [5] = molecular target: T2, human HDAC1; assay: HDAC1 inhibition, fluorogenic peptide substrate Ac-RHKK(Acetyl)-AMC; format: biochemical; details: test set
Procedure: as §1, §2

human HDAC3 [6] = molecular target: T3, human HDAC3; assay: HDAC3 inhibition, fluorogenic peptide substrate Ac-RHKK(Acetyl)-AMC; format: biochemical; details: test set
Procedure: as §1, §2

T1 sequence (Q92769 whole entry): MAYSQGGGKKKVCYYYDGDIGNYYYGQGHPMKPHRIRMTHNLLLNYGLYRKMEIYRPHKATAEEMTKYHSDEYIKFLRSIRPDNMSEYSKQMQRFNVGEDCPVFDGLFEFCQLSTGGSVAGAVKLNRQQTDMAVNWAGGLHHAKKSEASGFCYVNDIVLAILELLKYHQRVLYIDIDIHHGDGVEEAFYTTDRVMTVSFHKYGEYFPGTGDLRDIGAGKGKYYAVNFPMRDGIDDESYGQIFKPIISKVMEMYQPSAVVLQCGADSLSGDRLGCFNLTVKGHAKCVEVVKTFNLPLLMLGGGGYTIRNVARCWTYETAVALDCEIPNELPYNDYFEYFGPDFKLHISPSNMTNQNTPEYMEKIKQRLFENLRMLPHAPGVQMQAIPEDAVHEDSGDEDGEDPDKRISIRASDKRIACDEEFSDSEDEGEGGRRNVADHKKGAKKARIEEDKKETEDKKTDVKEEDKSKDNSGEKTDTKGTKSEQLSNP
T2 sequence (Q13547 whole entry): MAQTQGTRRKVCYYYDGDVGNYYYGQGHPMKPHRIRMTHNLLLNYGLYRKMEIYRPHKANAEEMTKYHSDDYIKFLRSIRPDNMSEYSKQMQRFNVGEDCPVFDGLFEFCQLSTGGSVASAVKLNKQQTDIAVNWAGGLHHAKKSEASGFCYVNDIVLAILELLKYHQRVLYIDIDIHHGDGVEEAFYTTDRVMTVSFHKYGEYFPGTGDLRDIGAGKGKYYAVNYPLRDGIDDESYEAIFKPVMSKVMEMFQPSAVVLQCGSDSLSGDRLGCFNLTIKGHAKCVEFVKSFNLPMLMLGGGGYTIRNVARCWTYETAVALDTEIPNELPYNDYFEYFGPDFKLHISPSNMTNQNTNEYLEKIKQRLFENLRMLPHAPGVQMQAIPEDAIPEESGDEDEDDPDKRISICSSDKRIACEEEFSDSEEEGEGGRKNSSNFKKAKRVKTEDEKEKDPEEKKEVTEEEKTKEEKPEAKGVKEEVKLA
T3 sequence (O15379 whole entry): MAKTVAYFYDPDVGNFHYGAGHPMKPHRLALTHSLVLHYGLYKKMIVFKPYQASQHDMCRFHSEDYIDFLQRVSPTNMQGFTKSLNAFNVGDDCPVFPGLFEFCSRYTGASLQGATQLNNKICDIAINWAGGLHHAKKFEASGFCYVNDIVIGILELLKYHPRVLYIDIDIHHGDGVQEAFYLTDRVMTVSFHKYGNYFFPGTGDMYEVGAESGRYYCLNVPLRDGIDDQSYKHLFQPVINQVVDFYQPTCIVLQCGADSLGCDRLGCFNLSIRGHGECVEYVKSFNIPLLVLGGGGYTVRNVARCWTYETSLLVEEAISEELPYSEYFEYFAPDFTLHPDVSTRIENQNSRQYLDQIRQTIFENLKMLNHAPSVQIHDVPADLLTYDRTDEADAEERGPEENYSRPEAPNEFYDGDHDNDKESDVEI
T3 sequence (O75376 395-489 partner limits assumed): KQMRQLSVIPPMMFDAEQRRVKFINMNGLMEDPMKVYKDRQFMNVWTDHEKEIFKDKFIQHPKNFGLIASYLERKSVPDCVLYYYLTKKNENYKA

Row | SMILES | HDAC2-pIC50 (human HDAC2 [1]) | HDAC1-pIC50 (human HDAC1 [2]) | HDAC3-pIC50 (human HDAC3 [3]) | other results
1 | Nc1cc(Cl)ccc1NC(=O)c1cnc(N2CCN(CCc3c[nH]c4ccccc34)CC2)cn1 [19i] | 5.57 | 5.52 | 5.72 | –
2 | Nc1ccccc1NC(=O)c1cnc(N2CCN(Cc3csc4ccccc34)CC2)cn1 [19e] | 6.15 | 6.68 | 6.08 | –
3 | Cn1cc(CN2CCN(c3cnc(C(=O)Nc4cc(F)ccc4N)cn3)CC2)c2ccccc21 [23b] | 6.30 | 6.57 | 6.30 | –
4 | Cn1cc(CN2CCN(c3ncc(C(=O)Nc4ccccc4N)cn3)CC2)c2ccccc21 [19j] | 6.03 | 6.35 | 5.76 | –
5 | Cn1cc(CCN2CCN(c3cnc(C(=O)Nc4cc(-c5cccs5)ccc4N)cn3)CC2)c2ccccc21 [21a] | 5.61 | 6.59 | – | –
6 | CN1CCN(c2cnc(C(=O)Nc3cc(-c4cccs4)ccc3N)cn2)CC1 [30b] | – | – | – | Experimental HDAC2 pIC50 (human HDAC2 [4]): 6.10; IC50 (human HDAC2 [4]): 790 ± 20 nM; Experimental HDAC1 pIC50 (human HDAC1 [5]): 7.39; IC50 (human HDAC1 [5]; read-out: HDAC1 IC50): 40 ± 6 nM; HDAC3 % inhibition (human HDAC3 [6]; @1 µM): 6%; HDAC3 % inhibition (human HDAC3 [6]; @10 µM): 35%
7 | Cn1cc(CCN2CCN(c3cnc(C(=O)Nc4cc(F)ccc4N)cn3)CC2)c2ccccc21 [23c] | 5.86 | 6.48 | 6.23 | –
8 | Nc1cc(F)ccc1NC(=O)c1ccc(C(=O)NCc2ccncc2)cc1 [31b] | – | – | – | inhibition at 1 µM (human HDAC2 [4]): 13%; inhibition at 10 µM (human HDAC2 [4]): 30%; inhibition at 1 µM (human HDAC1 [5]): 0%; inhibition at 10 µM (human HDAC1 [5]): 27%; inhibition at 1 µM (human HDAC3 [6]; @1 µM): 19%; inhibition at 10 µM (human HDAC3 [6]; @10 µM): 59%
9 | Nc1cc(F)ccc1NC(=O)c1cnc(N2CCNCC2)cn1 [23a] | 5.66 | 5.48 | 6.40 | –
10 | COc1ccc(NC(=O)c2cnc(N3CCNCC3)cn2)c(N)c1 [27c] | 4.85 | 4.7 | 4.85 | –
11 | Nc1ccccc1NC(=O)c1cnc(N2CCN(CCc3c[nH]c4ccccc34)CC2)cn1 [19g] | 6.02 | 6.51 | 6.31 | –
12 | Nc1ccc(-c2ccc(F)cc2)cc1NC(=O)c1cnc(N2CCN(CCc3c[nH]c4ccccc34)CC2)cn1 [21b] | 6.11 | 6.15 | – | –
13 | CN1CCN(c2cnc(C(=O)Nc3cc(-c4ccsc4)ccc3N)cn2)CC1 [29a] | 6.74 | 6.96 | 5.36 | –
14 | CC(=O)N1CCN(c2cnc(C(=O)Nc3ccccc3N)cn2)CC1 [30d] | – | – | – | Experimental HDAC2 pIC50 (human HDAC2 [4]): 4.62; IC50 (human HDAC2 [4]): 24000 ± 2000 nM; Experimental HDAC1 pIC50 (human HDAC1 [5]): 5.72; IC50 (human HDAC1 [5]; read-out: HDAC1 IC50): 1900 ± 100 nM; HDAC3 % inhibition (human HDAC3 [6]; @1 µM): 15%; HDAC3 % inhibition (human HDAC3 [6]; @10 µM): 72%
15 | Nc1ccc(-c2ccc(F)cc2)cc1NC(=O)c1cnc(N2CCNCC2)cn1 [29c] | 6.47 | 6.80 | 5.17 | –
16 | Nc1ccccc1NC(=O)c1cnc(N2CCN(Cc3ccccn3)CC2)cn1 [19d] | 5.84 | 6.28 | 5.97 | –
17 | Nc1cc(F)ccc1NC(=O)c1ccc(C(=O)NCc2cccnc2)cc1 [31c] | – | – | – | inhibition at 1 µM (human HDAC2 [4]): 14%; inhibition at 10 µM (human HDAC2 [4]): 51%; inhibition at 1 µM (human HDAC1 [5]): 6%; inhibition at 10 µM (human HDAC1 [5]): 36%; inhibition at 1 µM (human HDAC3 [6]; @1 µM): 25%; inhibition at 10 µM (human HDAC3 [6]; @10 µM): 66%
18 | Nc1cc(Cl)ccc1NC(=O)c1cnc(N2CCNCC2)cn1 [25a] | – | – | 5.06 | –
19 | Nc1ccccc1NC(=O)c1cnc(N2CCN(CCc3ccccc3)CC2)cn1 [19a] | 6.10 | 6.29 | 5.95 | –
20 | Nc1cc(F)c(F)cc1NC(=O)c1cnc(N2CCN(CCc3c[nH]c4ccccc34)CC2)cn1 [19h] | 6.13 | 6.09 | 6.24 | –
21 | Cn1cc(CCN2CCN(c3cnc(C(=O)Nc4ccc(F)cc4N)cn3)CC2)c2ccccc21 [19m] | 5.83 | 6.40 | 6.40 | –
22 | Nc1ccc(-c2cccs2)cc1NC(=O)c1cnc(N2CCNCC2)cn1 [29b] | 6.59 | 7.15 | 5.21 | –
23 | Nc1cc(F)ccc1NC(=O)c1ccc(C(=O)NCc2ccccc2)cc1 [31a] | – | – | – | inhibition at 1 µM (human HDAC2 [4]): 10%; inhibition at 10 µM (human HDAC2 [4]): 37%; inhibition at 1 µM (human HDAC1 [5]): 4%; inhibition at 10 µM (human HDAC1 [5]): 31%; inhibition at 1 µM (human HDAC3 [6]; @1 µM): 21%; inhibition at 10 µM (human HDAC3 [6]; @10 µM): 65%
24 | Cn1cc(CN2CCN(c3cnc(C(=O)Nc4ccccc4N)cn3)CC2)c2ccccc21 [19k] | 6.25 | 6.85 | 6.23 | –
25 | Nc1cc(F)c(F)cc1NC(=O)c1cnc(N2CCNCC2)cn1 [25b] | 5.38 | 5.37 | 5.80 | –
26 | CC(=O)N1CCN(c2cnc(C(=O)Nc3cc(-c4cccs4)ccc3N)cn2)CC1 [30c] | – | – | – | Experimental HDAC2 pIC50 (human HDAC2 [4]): 5.96; IC50 (human HDAC2 [4]): 1100 ± 100 nM; Experimental HDAC1 pIC50 (human HDAC1 [5]): 7.72; IC50 (human HDAC1 [5]; read-out: HDAC1 IC50): 19 ± 1 nM; HDAC3 % inhibition (human HDAC3 [6]; @1 µM): 4%; HDAC3 % inhibition (human HDAC3 [6]; @10 µM): 30%
27 | Cn1cc(CN2CCN(c3cnc(C(=O)Nc4cc(F)c(F)cc4N)cn3)CC2)c2ccccc21 [19l] | 6.25 | 6.54 | 6.09 | –
28 | CN1CCN(c2cnc(C(=O)Nc3cc(-c4ccccc4F)ccc3N)cn2)CC1 [29d] | 6.59 | 6.74 | 4.92 | –
29 | CN1CCN(c2ncc(C(=O)Nc3cc(-c4cccs4)ccc3N)cn2)CC1 [30a] | – | – | – | IC50 (human HDAC2 [4]): 610 ± 20 nM; IC50 (human HDAC1 [5]; read-out: Experimental HDAC1 pIC50 (converted)): 324 nM; inhibition at 1 µM (human HDAC3 [6]; @1 µM): 8%; inhibition at 10 µM (human HDAC3 [6]; @10 µM): 38%
30 | Nc1ccc(-c2ccccc2F)cc1NC(=O)c1cnc(N2CCN(CCc3c[nH]c4ccccc34)CC2)cn1 [21c] | 6.12 | 6.12 | 4.82 | –
